Patent US20080312129A1, “Use of Mas G-Protein-Coupled Receptor Agonists and Antagonists, as Apoptotic-Activity Modulators for Study, Prevention and Treatment of Diseases” (priority 2005, published 2008)

Legend:
[1] = system: CHO cells transfected with the Mas receptor (CHO-Mas); experiment: Western blot, phosphorylation of kinase B (Akt) in CHO-Mas cells; format: cell-based; settings: FIG. 10
Protocol: (§1) CHO cells transfected with the Mas receptor (CHO-Mas) and human endothelial cells of the thoracic aorta (HAEC) were cultured until confluence of approximately 80% and processed with a lise buffer for Western blotting. After the processing, the protein concentration was determined and the lisates were subjected to electrophoresis in polyacrylamide/SDS gel and then subjected to transfer to the nitrocellulose membrane. The membranes were incubated with specific antibodies (anti-phospho-Akt, anti-Akt, anti-phospho-eNOS and anti-β-actin). The bands were viewed after development by chemoluminescence.

[2] = system: CHO cells transfected with the Mas receptor (CHO-Mas); experiment: Western blot, phosphorylation of eNOS stimulatory site (S1177) in CHO-Mas cells; format: cell-based; settings: FIG. 11
Protocol: as §1

[3] = system: human endothelial cells of the thoracic aorta (HAEC); experiment: Western blot, phosphorylation of kinase B (Akt) in HAEC; format: cell-based; settings: FIG. 12
Protocol: as §1

[4] = system: human endothelial cells of the thoracic aorta (HAEC); experiment: Western blot, phosphorylation of eNOS stimulatory site (S1177) in HAEC; format: cell-based; settings: FIG. 13
Protocol: as §1

[5] = system: awake Wistar rats; experiment: Vasodilating action of acetylcholine (blood pressure) in awake rats; format: in vivo, rat; settings: endovenous infusion 7.0 pmol/min, n=9, FIG. 14B
Protocol: Wistar rats were subjected, 24 hours before the experiments, to surgical implantation of catheters into the femoral artery (for analysis of blood pressure and heart rate), femoral vein (for injection and infusion of drugs) and left carotid artery (for injection of drugs). The records of blood pressure and heart rate were obtained through a data acquisition system connected to a microcomputer (BIOPAC System, INc.). […] In none of the groups did we observe any alterations in the baroreflex.

[6] = system: human aorta endothelial cells (HAEC); experiment: Western blot, phosphorylation of c-SRC stimulated by Ang II in HAEC; format: cell-based; settings: FIG. 15, 4 experiments, b15 words it as inhibiting c-SRC
Protocol: (§2) In order to quantify the activity of the NAD(P)H Oxtidase, human aorta endothelial cells (HAEC) were stimulated with angiotensin II (10^−7M) for 10 minutes. In some experiments, the cells were pre-exposed to the AT1 receptor antagonist Ibesartan (10^−5M), for 30 minutes or to Ang-(1-7) (10^−7 M) for 15 minutes. The chemoluminescence derived from lucigenin was used to determine the activity of NAD(P)H oxidase in the homogenate of the cells. In order to quantify the modulation of Ang-(1-7) in the phosphorylation of c-SRC, the HAECs were cultured until confluence of about 80% was reached and processed with lise buffer for Western blotting. After the processing, the protein concentration was determined and the lisates were subjected to gel electroforesis of polyacrylamide/SDS and then to the transfer to nitrocellulose membrane. The membranes were incubated with specific antibodies (anti-phospho-c-SRC, anti-c-SRC). The bands were visualized after development by chemoluminescency. […] In some experiments the cells were pre-incubated with Ibesartan (10^−5 M, 30 min). Data are presented with an average±EPM of 4 experiments. *p<0.05 vs control.+p<0.05 vs Ang II+Ang (1-7).

[7] = system: NAD(P)H oxidase; experiment: NAD(P)H oxidase activity in HAEC homogenate, lucigenin chemoluminescence; format: cell-based, human; settings: HAEC stimulated by Ang II 10^-7 M 10 min; Ang-(1-7) 10^-7 M 15 min pre-incubation; FIG. 16; direction stated only
Protocol: as §2

[8] = system: C57 mice; experiment: Testis histology (apoptosis) and gonadosomatic index after 14-day osmotic mini-pump infusion; format: in vivo, mouse; settings: 2.5 μg/h s.c. mini-pump, 14 days, n=5, FIG. 17
Protocol: Osmotic mini-pumps (ALZET, model 2002) containing the Mas G-protein-coupled receptor antagonist, A-779 (2.5 μg/h, 14 days, n=5) or carrier (NaCl 0.9%, 1 μl/h, 14 days, n=6) were implanted subscutaneously into the dorsal region of C57 mice under anesthesia with tribromoethanol (2.5%, 1 ml/100 g of body weight). After this period, the animals were weigh and then injected, by intraperitoneal route, with heparin at the concentration of 125 Ul/kg of body weight. After fifteen minutes, these animals were sedated with sodium thiopental (50 mg/kg of body weight) and perfused through the left ventricle. In a first step, it was carried out the washing of the vascular bed with a 0.9% saline solution, under a pressure of approximately 80 mmHg, for about 5 minutes, at room temperature. Immediately after this procedure, the animals were perfused with a 4% glutaraldehyde fixing solution in a phosphate buffer (0.05M, pH 7.2-7-4) for about 25 minutes. After this step, the testicles were removed and separated from the respective epididymis and weighed. From the testicular and body weights, one estimated the gonadosomatic index (percentage relation between the testicular weight and the body weight) for each animal. For the microscopic analyses, fragments of the testis up to about 3 mm thick were collected, which were dipped into glutaraldehyde buffered at 4% for two to four hours, at 4° C. […]

| Substance | phosphorylation of kinase B (Akt) [1] | phosphorylation of the stimulatory site of endothelial nitric oxide synthase (S1177) [2] | phosphorylation of kinase B (Akt) [3] | phosphorylation of the stimulatory site of eNOS (S1177) [4] | effect on the vasodilating action of acetylcholine (ACh) [5] | effect on phosphorylation of c-SRC stimulated by Ang II [6] | activity of NAD(P)H oxidase [7] | effect on Ang-(1-7)-stimulated phosphorylation of kinase B (Akt) [1] | effect on Ang-(1-7)-stimulated phosphorylation of kinase B (Akt) [3] | gonadosomatic index (testicular weight / body weight, percentage) versus control group [8] | number of apoptosis per transverse section of testis versus control group [8] |
| --- | --- | --- | --- | --- | --- | --- | --- | --- | --- | --- | --- |
| Angiotensin-(1-7) [Ang-(1-7)] | stimulation | stimulated | stimulatory effect | stimulated | potentiates the vasodilating action of acetylcholine | modulating effect | inhibits the activity of NAD(P)H oxidase | – | – | – | – |
| Asp^1-Arg^2-Val^3-Tir^4-Lle^5-His^6-D-Ala^7 [A-779, reference compound] | – | – | – | – | – | – | – | blocked this effect | blocked this effect | there was not different | larger number of apoptosis per transverse section |
